Data: patent publication US20160052898A1, “NOVEL COMPOUNDS” (BAYER PHARMA AKTIENGESELLSCHAFT, priority 2013, published 2016)

Experiments:
Type in all cases: cell-based
[1] = tested on: HEK293 FOP control reporter cell line; assay: HEK293 FOP control vector reporter assay; conditions: Homo sapiens; HEK293 FOP control reporter cells, EC50 concentration of recombinant Wnt-3a, 16 hours incubation; read-out: HEK FOP IC50
Outline: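 Stable HEK293 cells carrying FOP control vector (non-functional TCF sites), 10000 cells/well plated 24 h before, stimulated with recombinant human Wnt-3a at 2500–5 ng/ml in two-fold steps. Compounds from 50 μM to 15 nM (3.16-fold) in CAFTY buffer pH 7.4 with 2 mM Ca2+, 0.01% BSA, run in parallel with TOP line; luciferase read-out.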

[2] = tested on: HCT116 FOP control reporter cell line; assay: HCT116 FOP control vector reporter assay (non-functional TCF elements); conditions: Homo sapiens, HCT-116, 36 h, HCT116 FOP control reporter cells, luciferase expression, 36 hours incubation, 50 μM to 15 nM; read-out: HCT116 FOPFlash IC50
Outline: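 Stable HCT116 line carrying the non-functional FOP luciferase construct, 10000 cells/well plated 24 hrs before. Compounds 50 μM to 15 nM (3.16-fold steps) in CAFTY buffer pH 7.4 with 2 mM Ca2+, 36 hours at 37° C; luciferase luminescence read.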

[3] = tested on: constitutive active colorectal cancer cell (CRC) Wnt pathway; assay: HCT116 Super TopFlash cellular reporter assay (constitutive active Wnt pathway); conditions: Homo sapiens, HCT-116, 36 h, HCT116 TOP reporter cells, luciferase expression, 36 hours incubation, 50 μM to 15 nM
Outline: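 Luciferase luminescence served as the Wnt read-out after 36 h of compound treatment at 37 °C. Compound came from a pre-dilution series (50 μM down to 15 nM, 3.16-fold steps) in CAFTY buffer. Cells were stable HCT116 TOP reporter cells, with matched FOP-vector control cells tested in parallel, seeded a day earlier.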

[4] = tested on: wildtype Wnt pathway; assay: HEK293 Super TopFlash cellular reporter assay, Wnt-3a stimulated (wildtype Wnt pathway); conditions: Homo sapiens; HEK293 TOP reporter cells, EC50 concentration of recombinant Wnt-3a, 16 hours incubation; read-out: HEK TOP OncoFlash IC50
Outline: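 Stable HEK293 Super TopFlash and FOP reporter cells stimulated with recombinant human Wnt-3a (2500–5 ng/ml, two-fold steps). Compounds tested 50 μM to 15 nM in 3.16-fold steps in CAFTY buffer pH 7.4 with 2 mM Ca2+ and 0.01% BSA; luciferase read-out.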

Row | Compound | IC50 [1] | IC50 [2] | IC50 [3] | IC50 [4]
1 | CSc1ccc(C(=O)Nc2ccc(-c3ccccc3)cc2)cc1NC(=O)CN1CCOCC1 [Example 109, N-(biphenyl-4-yl)-4-(methylsulfanyl)-3-[(morpholin-4-ylacetyl)amino]benzamide] | ≥ 50000 nM | ≥ 50000 nM | 48.8 nM | 280 nM
2 | O=C(CN1CCOCC1)Nc1cc(C(=O)Nc2ccc(-c3ccccc3)cc2)ccc1OC1CC1 [Example 112, N-(biphenyl-4-yl)-4-(cyclopropyloxy)-3-[(morpholin-4-ylacetyl)amino]benzamide] | ≥ 50000 nM | ≥ 50000 nM | 83.2 nM | 77 nM
3 | CN1CCN(C2(C(=O)Nc3cc(C(=O)Nc4ccc(-c5ccccc5)cc4)ccc3OC3CC3)CC2)CC1 [Example 114, N-(biphenyl-4-yl)-4-(cyclopropyloxy)-3-({[1-(4-methylpiperazin-1-yl)cyclopropyl]carbonyl}amino)benzamide] | ≥ 50000 nM | 21000 nM | 15.8 nM | 36 nM
4 | O=C(Nc1ccc(-c2ccccc2)cc1)c1ccc(OC2CC2)c(NC(=O)C2(N3CCN(C4CC4)CC3)CC2)c1 [Example 115, N-(biphenyl-4-yl)-4-(cyclopropyloxy)-3-({[1-(4-cyclopropylpiperazin-1-yl)cyclopropyl]carbonyl}amino)benzamide] | ≥ 50000 nM | ≥ 50000 nM | 36.2 nM | 170 nM
5 | CS(=O)(=O)Cc1ccc(C(=O)Nc2ccc(-c3ccccc3)cc2)cc1NC(=O)CN1CCOCC1 [Example 124, N-(biphenyl-4-yl)-4-[(methylsulfonyl)methyl]-3-[(morpholin-4-ylacetyl)amino]benzamide] | 11000 nM | ≥ 50000 nM | 34 nM | 110 nM
6 | O=C(CN1CCOCC1)Nc1cc(C(=O)Nc2ccc(-c3ccccc3)cc2)ccc1OCC(F)(F)F [Example 127, N-(biphenyl-4-yl)-3-[(morpholin-4-ylacetyl)amino]-4-(2,2,2-trifluoroethoxy)benzamide] | 31000 nM | ≥ 50000 nM | 44.5 nM | 110 nM
